Test system: mussel mantle edge
Assay: Ex-vivo incubation of mantle edge fragments, calcium quantification by MP-AES
Set-up: species or system Mytilus galloprovincialis
Conditions: Verapamil 200 µM, 4 hours; data not shown
Procedure: Figure 7 Effect of the mussel calcitonin-like peptide on (A) calcium (ppm) concentration in the mantle edge and (B) calcium uptake by mantle cells of the Mediterranean mussel. (A) The quantity of calcium (ppm) present in the mantle edge after mussel CALCIIa peptide incubation was measured using a Microwave Plasma-Atomic Emission Spectrometer (MP-AES, Agilent) at 393.366 nm. A standard curve for calcium was performed before analysing the samples. In vitro mantle assays with CALCIIa peptide and with ouabain and control (culture medium and mantle) were repeated on at least 3 independent occasions. For each assay at least ten replicates were performed and the mantle edge distal to the umbo was used (one mantle fragment per replica). Prism GraphPad v5 software was used to assess the significance of differences between the groups using a One-way Anova and Tukey’s multiple comparison test. […] C - control (no peptide or ouabain); P - peptide (10 μM); O - ouabain (2 mM), OP - ouabain (2 mM) and peptide (10 μM); PreOP - pre -stimulation for 1 hour with the peptide followed by 4 hours incubation with OP. (B) Digital photographs of the mussel mantle cells in the presence (CALCIIa, 10 μM) or absence (control) of the mussel CALCIIa peptide. Calcium ions were stained with 50 mM of Calcein (green) and cell nuclei (blue) with DAPI (Acros Organics). An increase in cellular fluorescence represents an increase in calcium uptake. Fluorescence of the CALCIIa peptide stimulated cells was 1.9 times higher than the control. The average mantle cell size was 3–4 μm and fluorescent images were taken using a Leica DM IL microscope coupled to a Visicam HDMI 6 digital camera and photographs were analysed using ImageJ software (v. 1.52a) to calculate the fluorescence intensity and for image overlay. The scale bar is indicated.
The posterior mantle edge region of the Mediterranean mussel was collected and washed in culture medium. The composition of the culture medium was as described in[91] […]

COc1ccc(CCN(C)CCCC(C#N)(c2ccc(OC)c(OC)c2)C(C)C)cc1OC (stereo not shown) [Verapamil]
Calcium concentration of mantle fragments relative to the control (in words): did not change

— PMC7200681, “The calcitonin-like system is an ancient regulatory system of biomineralization” (Scientific Reports, 2020)
